According to patent publication US20080113347A1, “Method for the in Vitro Diagnosis and Prognosis of Demyelinating Diseases, and for the Development of Drugs Against Demyelinating Diseases” (priority 2003, published 2008):
Values joined by “and” are separate entries in the source; they are usually repeats but may differ in a detail not shown here. Identical values can stand only once.

Test system: dusp6 gene expression
Assay: Real time quantitative RT-PCR of dusp6 expression in primary oligodendrocyte cultures
Type: cell-based, rat
Details: for Experimental dusp6 crossing points (Cp), single replicas: replicas 1 and 2; for Dusp6 overexpression values (Fold Change) with regard to the untreated control, Ratio: standardized to GAPDH
Protocol: The method used consists of reverse transcription of mRNA to cDNA and its subsequent amplification into a LightCycler equipment (Roche), using SYBR Green for the detection of the amplified product. Real time quantification is carried out, and it allows calculating the relative expression of the sequence in different samples in the linear amplification phase of the reaction.
Samples: Primary oligodendrocyte culture samples treated with AMPA were analyzed. The samples came from cultures different from those analyzed with DNA microarrays. 4 cultures were carried out:
control: untreated cultured oligodendrocytes
ampa 2: oligodendrocytes treated for 2 minutes with 10 μM AMPA and collected after treatment
ampa 10: oligodendrocytes treated for 10 minutes with 10 μM AMPA collected after treatment
ampa 15: oligodendrocytes treated for 15 minutes with 10 μM AMPA and collected 60 minutes later.
Real time quantitative RT-PCR. The total RNA of each one of the cultures was obtained by homogenizing the cells in TRIzol® Reagent (Life Technologies) following the supplier's recommendations. The resulting total RNA was cleaned with the RNeasy kit (QIAGEN) (Chomczynski P. et al., Anal. Biochem., 1987, 162: 156; Chomczynski P., Biotechniques, 1993, 15: 532). The total RNA samples were conserved at −80° C. from the moment they were obtained until they were used. The RNA was spectrophotometrically quantified and 5 μg of total RNA were digested with DNase (2 U/μl) of Ambion at a concentration of 2 U per μg of RNA, for 30 minutes at 37° C.
1 μg of RNA treated with DNAse as a starting material was used for the synthesis of the first cDNA strand with the reverse transcriptase enzyme SuperScript™ II RNase (Life Technologies), using an oligo-dT oligonucleotide as a primer which contained the sequence of the promoter of the phage T7 RNA polymerase. Aliquots of cDNA diluted to the working concentration were used.
Synthesized cDNA was amplified using specific primers of the rat dusp6 gene (SEQ ID NO: 1 and SEQ ID NO: 2), and of the gene encoding the rat protein glyceraldehyde 3-phosphate dehydrogenase, Genebank accession number NM_017008 (SEQ ID NO:21 and SEQ ID NO:22). Real time PCR reactions were prepared using the LightCycler-FastStart DNA master SYBR Green I kit (Roche) following the manufacturer's instructions. The amplification program consisted of […] for 10 min (“hot start”) followed by 45 95° C. cycles (denaturation) for 10 seconds, 60° C. (annealing) for 5 seconds, 72° C. (amplification and fluorescence acquisition) for 10 seconds. The melting curve analysis program consisted of a one-pulse cycle of 95° C., 65° C. for 15 seconds, and a 95° C. pulse during the amplification and acquisition step.
First, specificity of the PCR products was determined by analyzing the melting curves. Subsequently, as a relative measurement of gene expression, the ratio between the abundance of dusp6 transcribed mRNAs and the abundance of GAPDH transcribed mRNAS was calculated, and the data of the ratio was standardized in each one of the treated samples on the basis of control sample values. To calculate efficiency of the PCR reactions (dusp6 and GAPDH), a standard curve was constructed for each gene sequence carried out with cDNA serial dilutions. The template cDNA concentrations for the reactions on the standard curve were arbitrarily given the values 2×, 0.5×, 0.2× and 0.02×. The crossing point values for each one of the reactions were used to construct the standard curve: y=m×+b, where m is the slope and b is the intersection point of the line on the axis of ordinates. Starting RNA concentration values in each sample were obtained from the data of the line using the following formula: […]
The change rate at each point was obtained by dividing the concentration values standardized in comparison to the concentration values in the control.

[1] = 10 μM AMPA 2 minutes, collected after treatment
[2] = 10 μM AMPA 10 minutes, collected after treatment
[3] = 10 μM AMPA 15 minutes, collected 60 minutes later

## Cc1onc(O)c1CC(N)C(=O)O (stereo not drawn) [AMPA, α-amino-3-hydroxy-5-methyl-4-isoxazolepropionic acid]
[1]
  Experimental dusp6 crossing points (Cp), Mean: 30.5
  Experimental dusp6 crossing points (Cp), single replicas: 30.46 and 30.54
  Dusp6 overexpression values (Fold Change) with regard to the untreated control, Ratio: 1.7 fold
[2]
  Experimental dusp6 crossing points (Cp), Mean: 32.23
  Experimental dusp6 crossing points (Cp), single replicas: 32.15 and 32.31
  Dusp6 overexpression values (Fold Change) with regard to the untreated control, Ratio: 0.9 fold
[3]
  Experimental dusp6 crossing points (Cp), Mean: 29.67
  Experimental dusp6 crossing points (Cp), single replicas: 29.73 and 29.61
  Dusp6 overexpression values (Fold Change) with regard to the untreated control, Ratio: 2.7 fold
